Measured values published in US11576865B2, “Sustained-release dosage forms of ruxolitinib” (Incyte Corporation, priority 2012, dated 2023).

Legend:
[1] = Open-label study of immediate-release ruxolitinib phosphate tablets in MF patients, pharmacokinetics; assay type: in vivo, human; settings: dose from 10 mg to 100 mg
Method: This was an open-label study exploring the safety, tolerability, and efficacy of ruxolitinib, administered orally to patients with primary myelofibrosis (PMF) and post polycythemia vera/essential thrombocythemia myelofibrosis (Post-PV/ET MF). The study was comprised of 3 parts: Part 1-dose escalation and expansion, bid dosing, Part 2-alternative dosing schedules (A, B and C), and Part 3-three independent patient groups (Group I, II and III). Eight dose regimens were evaluated in 3 parts. The Part 1 evaluated two dose levels of 25 mg bid and 50 mg bid, Part 2 studied five dose regimens of 10 mg bid, 25 mg bid, 25 mg qd, 50 mg qd and 100 mg qd and Part 3 assessed six dose regimens of 10 mg bid, 15 mg bid, 25 mg bid, 50 mg qd, 100 mg qd and 200 mg qd. A total of 154 subjects were enrolled; 32 subjects enrolled in Part 1, 29 subjects in Part 2 and 93 subjects in Part 3. See Table 4b (qd=once per day; bid=twice per day).
In Part 1, the pharmacokinetic blood samples were collected at pre-dose and 0.5, 1, 1.5, 2, 4, 6 and 9 hours post-dose on Days 1 and 15 of Cycle 1 and at pre-dose on Day 1 of Cycles 2 and 3, using lavender top (K3EDTA) Vacutainer® tubes. […]
Plasma samples were shipped to Incyte Corporation and assayed by a validated, GLP, LC/MS/MS method with a linear range of 1 to 1000 nM and a limit of quantification of 1 nM. […]

[2] = tested on: patients with myelofibrosis (MF); test: Phase 2 sustained-release clinical trial, haematology and adverse events; settings: human, in vivo, 16 weeks
Method: A Phase 2 clinical trial was carried out in patients with myelofibrosis (MF). A total of 41 subjects were enrolled, and spleen volume and total symptom scores were obtained at baseline. Tablets of sustained-release formulation SR-2 (see Example 1) were administered to fasted patients. All patients were treated with 25 mg once daily doses for 8 weeks. After 8 weeks, depending upon the clinical response, the investigator was allowed to (a) maintain the same dose of SR-2, (b) increase the dose to 50 mg once daily, (c) increase the dose to alternating doses of 25 mg and 50 mg, dosed once daily, or (d) switch to treatment with the immediate release formulation.
Data relating to mean platelet count and mean hemoglobin levels (Hgb) is presented below in Table 3 together with comparative data from the COMFORT-I study. […] Data is shown as mean±SD.
Data for adverse events relating to anemia, thrombocytopenia, neutropenia, and all Grade 3 or higher adverse events are compared for the sustained-release and COMFORT-I (immediate-release) studies (see Example 3 and Comparative Example A for descriptions of the studies) in Table 6a. Adverse events are graded according to CTCAE criteria which can be found online at ctep.cancer.gov/protocolDevelopment/electronic_applications/ctc.htm or evs.nci.nih.gov/ftp1/CTCAE/CTCAE_4.03_2010-06-14_QuickReference_5×7.pdf. A Grade 3 adverse event generally corresponds to a reaction that is severe or medically significant, but not immediately life-threatening where hospitalization or prolongation of hospitalization is indicated and where the reaction is disabling to the extent of limiting self care. Higher Grades are 4 (life-threatening requiring urgent intervention) and 5 (death). For anemia, Grade 3 corresponds to Hgb<8.0 g/dL; <4.9 mmol/L; <80 g/L, where a transfusion is indicated. For thrombocytopenia (decreased platelet count), Grade 3 corresponds to <50,000-25,000/mm^3; <50.0-25.0×10^9/L. The sustained-release data was evaluated for patients over the course of 16 weeks. Mean duration of exposure to ruxolitinib in the COMFORT-I was approximately 242 days. Typically, the majority of hematologic adverse events occur within the first few months of therapy as observed in the COMFORT-I study.
The sustained-release data was evaluated for patients over the course of 16 weeks. Mean duration of exposure to ruxolitinib in the COMFORT-I study was approximately 242 days. The vast majority of hematologic adverse events occur within the first few months of therapy as observed in the COMFORT-I study. […] Additionally, the severity of the adverse events is lesser in the sustained-release study.

[3] = tested on: patients with intermediate-2 or high risk myelofibrosis; settings: cited from earlier work
Myelofibrosis patients = settings: COMFORT-II, 48 weeks (primary end point); cited from earlier work
[4] = cited from earlier work
[5] = tested on: patients with intermediate-2 or high risk myelofibrosis; settings: cited from earlier work; remark: listed apart in the source
[6] = COMFORT I immediate-release, n 129
[7] = COMFORT I immediate-release, n 139
[8] = COMFORT I immediate-release, n 140
[9] = COMFORT I immediate-release, n 148
[10] = COMFORT I, immediate release, N = 155, maximum severity
[11] = COMFORT I, immediate release, N = 155, treatment-related, maximum severity
[12] = COMFORT I, immediate release, N = 155, treatment-related
[13] = COMFORT I, immediate release, N = 155
[14] = COMFORT I, mean exposure approximately 242 days
[15] = COMFORT-I Study (active), Week 12, mean total daily dose 30.4 mg, mean ± SD

N#CC[C@H](C1CCCC1)n1cc(-c2ncnc3[nH]ccc23)cn1 [Ruxolitinib, (3R)-3-cyclopentyl-3-[4-(7H-pyrrolo[2,3-d]pyrimidin-4-yl)pyrazol-1-yl]propanenitrile]
dose proportionality of mean Cmax and AUC [1]: increased approximately linearly proportional to dose | % of Subjects With Any Adverse Events, Any severity [2]: (78.0) % | % of Subjects with Anaemia, Any severity [2]: (4.9) % | % of Subjects with Blood and lymphatic system disorders, Any severity [2]: (19.5) % | % of Subjects with Thrombocytopenia, Any severity [2]: (14.6) % | Number of Subjects With Any Adverse Events, Any severity [2]: 32 | Number of Subjects With Any Adverse Events, LT (life threatening) [2]: 0 | Number of Subjects With Any Adverse Events, Mi (mild) [2]: 16 | Number of Subjects With Any Adverse Events, Mo (moderate) [2]: 9 | Number of Subjects With Any Adverse Events, Se (severe) [2]: 7 | Number of Subjects with Anaemia, Any severity [2]: 2 | Number of Subjects with Anaemia, LT (life threatening) [2]: 0 | Number of Subjects with Anaemia, Mi (mild) [2]: 0 | Number of Subjects with Anaemia, Mo (moderate) [2]: 2 | Number of Subjects with Anaemia, Se (severe) [2]: 0 | Number of Subjects with Blood and lymphatic system disorders, Any severity [2]: 8 | Number of Subjects with Blood and lymphatic system disorders, LT (life threatening) [2]: 0 | Number of Subjects with Blood and lymphatic system disorders, Mi (mild) [2]: 3 | Number of Subjects with Blood and lymphatic system disorders, Mo (moderate) [2]: 4 | Number of Subjects with Blood and lymphatic system disorders, Se (severe) [2]: 1 | Number of Subjects with Thrombocytopenia, Any severity [2]: 6 | Number of Subjects with Thrombocytopenia, LT (life threatening) [2]: 0 | Number of Subjects with Thrombocytopenia, Mi (mild) [2]: 3 | Number of Subjects with Thrombocytopenia, Mo (moderate) [2]: 2 | Number of Subjects with Thrombocytopenia, Se (severe) [2]: 1 | Total Symptom Score, Percent Change from Baseline To Week 24, Max [3, 6]: 108.3 | Total Symptom Score, Percent Change from Baseline To Week 24, Mean [3, 6]: −46.1 | Total Symptom Score, Percent Change from Baseline To Week 24, Median [3, 6]: −56.2 | Total Symptom Score, Percent Change from Baseline To Week 24, Min [3, 6]: −100.0 | Spleen Volume, Percent Change from Baseline To Week 24, Max [3, 7]: 25.1% | Spleen Volume, Percent Change from Baseline To Week 24, Mean [3, 7]: −31.6% | Spleen Volume, Percent Change from Baseline To Week 24, Median [3, 7]: −33.0% | Spleen Volume, Percent Change from Baseline To Week 24, Min [3, 7]: −75.9% | Total Symptom Score, Percent Change from Baseline To Week 16, Max [3, 8]: 292.5 | Total Symptom Score, Percent Change from Baseline To Week 16, Mean [3, 8]: −40.5 | Total Symptom Score, Percent Change from Baseline To Week 16, Median [3, 8]: −51.1 | Total Symptom Score, Percent Change from Baseline To Week 16, Min [3, 8]: −100.0 | Spleen Volume, Percent Change from Baseline To Week 12, Max [3, 9]: 3.8% | Spleen Volume, Percent Change from Baseline To Week 12, Mean [3, 9]: −32.0% | Spleen Volume, Percent Change from Baseline To Week 12, Median [3, 9]: −31.7% | Spleen Volume, Percent Change from Baseline To Week 12, Min [3, 9]: −74.4% | proportion of patients with a reduction of 50% or more in the total symptom score ([3]; COMFORT-I, baseline to week 24): 45.9% | proportion of patients with a reduction of 35% or more in spleen volume ([3]; COMFORT-I, week 24 (primary end point)): 41.9% | patients with at least a 35% reduction in spleen volume from baseline (Myelofibrosis patients): 28% | half-life ([4]; human, immediate-release, Shi et al.): about 3 hours | Bioavailability ([4]; oral): 70-80% | Number of Subjects With Any Adverse Events, FT (fatal) [5, 10]: 9 | Number of Subjects With Any Adverse Events, LT (life threatening) [5, 10]: 9 | Number of Subjects With Any Adverse Events, Mi (mild) [5, 10]: 20 | Number of Subjects With Any Adverse Events, Mo (moderate) [5, 10]: 58 | Number of Subjects With Any Adverse Events, Se (severe) [5, 10]: 55 | Number of Subjects with Anaemia, FT (fatal) [5, 11]: 0 | Number of Subjects with Anaemia, LT (life threatening) [5, 11]: 8 | Number of Subjects with Anaemia, Mi (mild) [5, 11]: 4 | Number of Subjects with Anaemia, Mo (moderate) [5, 11]: 20 | Number of Subjects with Anaemia, Se (severe) [5, 11]: 16 | Number of Subjects with Blood and lymphatic system disorders, FT (fatal) [5, 11]: 0 | Number of Subjects with Blood and lymphatic system disorders, LT (life threatening) [5, 11]: 10 | Number of Subjects with Blood and lymphatic system disorders, Mi (mild) [5, 11]: 20 | Number of Subjects with Blood and lymphatic system disorders, Mo (moderate) [5, 11]: 28 | Number of Subjects with Blood and lymphatic system disorders, Se (severe) [5, 11]: 27 | Number of Subjects with Thrombocytopenia, FT (fatal) [5, 11]: 0 | Number of Subjects with Thrombocytopenia, LT (life threatening) [5, 11]: 2 | Number of Subjects with Thrombocytopenia, Mi (mild) [5, 11]: 21 | Number of Subjects with Thrombocytopenia, Mo (moderate) [5, 11]: 19 | Number of Subjects with Thrombocytopenia, Se (severe) [5, 11]: 11 | % of Subjects with Anaemia, Any severity [5, 12]: 31.0% | % of Subjects with Blood and lymphatic system disorders, Any severity [5, 12]: 54.8% | % of Subjects with Thrombocytopenia, Any severity [5, 12]: 34.2% | Number of Subjects with Anaemia, Any severity [5, 12]: 48 | Number of Subjects with Blood and lymphatic system disorders, Any severity [5, 12]: 85 | Number of Subjects with Thrombocytopenia, Any severity [5, 12]: 53 | % of Subjects With Any Adverse Events, Any severity [5, 13]: 97.4% | Number of Subjects With Any Adverse Events, Any severity [5, 13]: 151 | Percent of Patients with All ≥ Grade 3 Adverse Events [5, 14]: 47.1% | Percent of Patients with Grade 3 or Higher Anemia [5, 14]: 15.5% | Percent of Patients with Grade 3 or Higher Neutropenia [5, 14]: 1.3% | Percent of Patients with Grade 3 or Higher Thrombocytopenia [5, 14]: 8.4% | Mean change from baseline Hgb [5, 15]: -13.2 ± 15.5 g/L | Mean change from baseline platelet count [5, 15]: −131 ± 143 ×10^9/L
